From PMC8508710, “Biochemical Characterization of 13-Lipoxygenases of Arabidopsis thaliana” (International Journal of Molecular Sciences, 2021)
Several values for one entry are separate records, joined by “and”; a condition that tells them apart may be missing. Identical values can stand only once.

Columns and labels:
[1] = target: T1, LOX4 (Arabidopsis thaliana, UniProt Q9FNX8); assay: LOX4 activity, spectrophotometric (conjugated diene formation at 234 nm); conditions: for Relative Activity (%) LOX4: substrate specificity, 31 µM PUFA, 4 µg 13-LOX, LeA = 100%
T1 sequence (Q9FNX8 71-926): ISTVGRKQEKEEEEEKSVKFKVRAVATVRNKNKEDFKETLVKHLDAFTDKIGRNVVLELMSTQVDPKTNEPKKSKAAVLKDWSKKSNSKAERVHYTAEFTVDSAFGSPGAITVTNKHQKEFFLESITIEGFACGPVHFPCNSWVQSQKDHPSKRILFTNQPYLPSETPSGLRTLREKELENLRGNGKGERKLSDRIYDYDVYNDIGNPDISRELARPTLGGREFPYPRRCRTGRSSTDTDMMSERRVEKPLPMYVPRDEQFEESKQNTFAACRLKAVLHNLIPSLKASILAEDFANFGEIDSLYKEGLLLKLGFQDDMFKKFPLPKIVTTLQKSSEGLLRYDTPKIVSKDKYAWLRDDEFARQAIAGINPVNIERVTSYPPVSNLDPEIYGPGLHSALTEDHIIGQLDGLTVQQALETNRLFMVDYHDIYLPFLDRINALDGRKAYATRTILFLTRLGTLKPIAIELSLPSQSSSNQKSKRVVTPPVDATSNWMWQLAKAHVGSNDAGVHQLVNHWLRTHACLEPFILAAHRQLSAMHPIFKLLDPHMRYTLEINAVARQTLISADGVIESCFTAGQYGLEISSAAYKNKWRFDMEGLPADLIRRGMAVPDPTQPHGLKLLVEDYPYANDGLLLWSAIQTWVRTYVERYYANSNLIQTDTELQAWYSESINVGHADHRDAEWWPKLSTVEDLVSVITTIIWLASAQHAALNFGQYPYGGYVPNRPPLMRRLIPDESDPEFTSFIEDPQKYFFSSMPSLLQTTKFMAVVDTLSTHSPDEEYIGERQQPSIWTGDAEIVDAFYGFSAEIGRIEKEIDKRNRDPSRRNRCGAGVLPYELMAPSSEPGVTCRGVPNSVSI

[2] = target: T2, LOX2 (Arabidopsis thaliana, UniProt P38418); set-up: made in house; host or cells: E. coli Nico21(DE3), pET15b; method as in PMID 18949503; conditions: cited from earlier work
T2 sequence (P38418 71-896): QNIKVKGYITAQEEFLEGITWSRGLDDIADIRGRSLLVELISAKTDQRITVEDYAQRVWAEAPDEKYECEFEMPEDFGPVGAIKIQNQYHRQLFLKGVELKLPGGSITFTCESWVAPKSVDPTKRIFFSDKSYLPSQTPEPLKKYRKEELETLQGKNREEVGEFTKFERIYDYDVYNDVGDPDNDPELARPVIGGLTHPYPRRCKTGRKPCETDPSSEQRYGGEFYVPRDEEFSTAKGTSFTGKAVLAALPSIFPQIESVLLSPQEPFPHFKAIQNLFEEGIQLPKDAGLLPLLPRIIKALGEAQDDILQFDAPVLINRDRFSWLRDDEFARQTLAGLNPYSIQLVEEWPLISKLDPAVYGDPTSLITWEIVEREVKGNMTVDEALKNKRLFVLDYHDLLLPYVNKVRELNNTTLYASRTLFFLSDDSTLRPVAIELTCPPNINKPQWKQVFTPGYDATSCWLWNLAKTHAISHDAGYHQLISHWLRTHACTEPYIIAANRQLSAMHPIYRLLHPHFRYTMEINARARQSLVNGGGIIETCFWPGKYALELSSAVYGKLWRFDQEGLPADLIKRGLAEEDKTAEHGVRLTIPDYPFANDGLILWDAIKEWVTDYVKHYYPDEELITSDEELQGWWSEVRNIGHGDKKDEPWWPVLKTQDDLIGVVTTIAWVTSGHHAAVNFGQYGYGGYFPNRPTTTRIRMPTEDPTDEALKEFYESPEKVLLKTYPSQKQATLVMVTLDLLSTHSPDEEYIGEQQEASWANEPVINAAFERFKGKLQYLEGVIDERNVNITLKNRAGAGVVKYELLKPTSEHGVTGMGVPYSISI

[3] = target: T2, LOX2; assay: LOX2 activity, spectrophotometric (conjugated diene formation at 234 nm); conditions: for Relative Activity (%) LOX2: substrate specificity, 31 µM PUFA, 4 µg 13-LOX, LeA = 100%
[4] = target: T3, LOX6 (Arabidopsis thaliana, UniProt Q9CAG3); assay: LOX6 activity, spectrophotometric (conjugated diene formation at 234 nm); conditions: for Relative Activity (%) LOX6: substrate specificity, 31 µM PUFA, 4 µg 13-LOX, LeA = 100%
T3 sequence (Q9CAG3 41-917): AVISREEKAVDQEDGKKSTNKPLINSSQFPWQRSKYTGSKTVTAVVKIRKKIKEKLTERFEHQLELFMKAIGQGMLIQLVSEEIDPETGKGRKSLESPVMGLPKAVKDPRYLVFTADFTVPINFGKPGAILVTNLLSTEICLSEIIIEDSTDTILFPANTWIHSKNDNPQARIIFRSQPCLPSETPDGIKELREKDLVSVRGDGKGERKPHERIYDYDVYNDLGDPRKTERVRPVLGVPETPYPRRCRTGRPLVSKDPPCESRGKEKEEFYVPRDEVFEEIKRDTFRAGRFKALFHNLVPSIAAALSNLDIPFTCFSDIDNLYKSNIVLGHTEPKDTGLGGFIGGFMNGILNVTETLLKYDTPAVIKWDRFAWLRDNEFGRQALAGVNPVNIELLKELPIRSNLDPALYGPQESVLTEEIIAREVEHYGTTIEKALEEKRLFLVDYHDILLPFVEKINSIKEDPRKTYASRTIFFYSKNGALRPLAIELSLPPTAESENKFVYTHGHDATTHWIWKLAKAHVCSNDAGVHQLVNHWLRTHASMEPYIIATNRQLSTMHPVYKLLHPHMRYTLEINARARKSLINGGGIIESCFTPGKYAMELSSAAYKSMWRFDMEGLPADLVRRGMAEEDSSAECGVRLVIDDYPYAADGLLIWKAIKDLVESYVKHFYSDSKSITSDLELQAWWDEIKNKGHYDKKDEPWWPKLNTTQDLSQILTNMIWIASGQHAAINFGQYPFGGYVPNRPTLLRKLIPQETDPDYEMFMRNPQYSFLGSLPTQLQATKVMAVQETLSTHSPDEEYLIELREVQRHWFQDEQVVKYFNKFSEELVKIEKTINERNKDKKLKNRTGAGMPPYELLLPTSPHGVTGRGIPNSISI

[5] = target: T4, LOX3 (Arabidopsis thaliana, UniProt Q9LNR3); assay: LOX3 activity, spectrophotometric (conjugated diene formation at 234 nm); conditions: for Relative Activity (%) LOX3: substrate specificity, 31 µM PUFA, 4 µg 13-LOX, LeA = 100%
T4 sequence (Q9LNR3 71-919): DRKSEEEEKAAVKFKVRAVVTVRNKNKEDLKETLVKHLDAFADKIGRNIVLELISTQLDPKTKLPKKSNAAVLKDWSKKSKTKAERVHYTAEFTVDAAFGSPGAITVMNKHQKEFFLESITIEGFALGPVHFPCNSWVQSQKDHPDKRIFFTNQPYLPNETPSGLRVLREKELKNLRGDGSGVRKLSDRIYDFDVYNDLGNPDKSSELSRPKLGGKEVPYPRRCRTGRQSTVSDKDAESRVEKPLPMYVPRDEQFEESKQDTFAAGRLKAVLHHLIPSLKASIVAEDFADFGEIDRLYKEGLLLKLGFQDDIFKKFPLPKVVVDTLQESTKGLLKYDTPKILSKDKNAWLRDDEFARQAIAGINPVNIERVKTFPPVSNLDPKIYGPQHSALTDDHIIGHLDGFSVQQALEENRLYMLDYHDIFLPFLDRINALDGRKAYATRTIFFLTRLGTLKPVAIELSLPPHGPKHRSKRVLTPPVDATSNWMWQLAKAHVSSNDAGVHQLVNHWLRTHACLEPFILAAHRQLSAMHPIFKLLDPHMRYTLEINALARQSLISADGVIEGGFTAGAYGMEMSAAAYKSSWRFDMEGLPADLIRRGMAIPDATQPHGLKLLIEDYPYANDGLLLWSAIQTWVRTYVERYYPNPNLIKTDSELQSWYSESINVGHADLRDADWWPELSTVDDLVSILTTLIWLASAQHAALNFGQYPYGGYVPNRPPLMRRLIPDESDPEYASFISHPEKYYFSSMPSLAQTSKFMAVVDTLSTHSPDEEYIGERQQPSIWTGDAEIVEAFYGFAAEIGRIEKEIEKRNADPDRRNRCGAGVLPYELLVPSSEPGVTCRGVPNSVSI

[6] = target: T2, LOX2; assay: LOX2 activity, oxygen electrode (polarography); type: biochemical; set-up: made in house; host or cells: E. coli Nico21(DE3), pET15b; conditions: 100 µM metal salt, LeA 30 µM in 20 mM HEPES pH 8.0, oxygen consumption vs control
[7] = target: T4, LOX3; assay: LOX3 activity, oxygen electrode (polarography); type: biochemical; set-up: made in house; host or cells: E. coli Nico21(DE3), pET15b; conditions: 100 µM metal salt, LeA 30 µM in 20 mM HEPES pH 8.0, oxygen consumption vs control
[8] = target: T3, LOX6; assay: LOX6 activity, oxygen electrode (polarography); type: biochemical; set-up: made in house; host or cells: E. coli Nico21(DE3), pEXP5-NT/TOPO; conditions: 100 µM metal salt, LeA 30 µM in 20 mM HEPES pH 8.0, oxygen consumption vs control
[9] = target: T1, LOX4; assay: LOX4 activity, oxygen electrode (polarography); type: biochemical; set-up: made in house; host or cells: E. coli Nico21(DE3), pET15b; conditions: for Relative Activity (%) LOX4: 100 µM metal salt, LeA 30 µM in 20 mM HEPES pH 8.0, oxygen consumption vs control; for Protective effect on LOX4 against 12-OPDA: 1.3 mM GSH, 140 µM 12-OPDA
[10] = read-out: Inhibition after pre-incubation with PUFA
[11] = read-out: Km app, substrate LeA, Michaelis Menten fit, apparent
[12] = enzyme 0.225 µg/µL incubated 10 min 30 °C with 280 µM chemical, 4.8 µM LeA, 50 mM Tris-HCl pH 7.2, vs solvent control

CCCCC/C=C\C/C=C\C/C=C\C/C=C\CCCC(=O)O [ARA, arachidonic acid]
Relative Activity (%) LOX4 ([1]; 50 mM Tris-HCl pH 7.2): 4 ± 1% | LOX2 activity with PUFA (relative) [2]: ~ 15% | Relative Activity (%) LOX2 ([3]; 50 mM Tris-HCl pH 7.2): 50% and 50 ± 4% | Relative Activity (%) LOX6 ([4]; 50 mM Tris-HCl pH 7.2): 8 ± 3% | Relative Activity (%) LOX3 ([5]; 50 mM Tris-HCl pH 7.2): 5 ± 1%

[Cl][Cu][Cl] [CuCl2]
Relative Activity (%) LOX2 [6]: 50 ± 20% | Relative Activity (%) LOX2 ([6]; listed as Cu^2+): strongly decreased | Relative Activity (%) LOX3 [7]: no activity | Relative Activity (%) LOX3 ([7]; listed as Cu^2+): abolished | Relative Activity (%) LOX6 [8]: no activity | Relative Activity (%) LOX6 ([8]; listed as Cu^2+): abolished | Relative Activity (%) LOX4 [9]: no activity | Relative Activity (%) LOX4 ([9]; listed as Cu^2+): abolished

CC/C=C\C/C=C\C/C=C\C/C=C\C/C=C\C/C=C\CCC(=O)O [DHA, docosahexaenoic acid]
Relative Activity (%) LOX4 ([1]; 50 mM Tris-HCl pH 7.2): 8 ± 1% | Relative Activity (%) LOX2 ([3]; 50 mM Tris-HCl pH 7.2): 56 ± 3% | Relative Activity (%) LOX6 ([4]; 50 mM Tris-HCl pH 7.2): 31 ± 3% | Relative Activity (%) LOX3 ([5]; 50 mM Tris-HCl pH 7.2): 7 ± 1%

N[C@@H](CCC(=O)N[C@@H](CS)C(=O)NCC(=O)O)C(=O)O [GSH]
Protective effect on LOX4 against 12-OPDA ([9]; 12.2 µg LOX4): ~ 7.1% | Protective effect on LOX4 against 12-OPDA ([9]; doubled LOX4 concentration): ~ 11.7%

CCCCC/C=C\C/C=C\CCCCCCCC(=O)O [LA, linoleic acid]
inhibition at 118 µM [1, 10]: > 50% | Relative Activity (%) LOX4 ([1]; 50 mM Tris-HCl pH 7.2): 11 ± 1% | LOX2 activity with PUFA (relative) [2]: ~ 40% | Relative Activity (%) LOX2 ([3]; 50 mM Tris-HCl pH 7.2): 79% and 79 ± 7% | inhibition at 29 µM [4, 10]: > 50% | Relative Activity (%) LOX6 ([4]; 50 mM Tris-HCl pH 7.2): 17 ± 1% | inhibition at 118 µM [5, 10]: > 50% | Relative Activity (%) LOX3 ([5]; 50 mM Tris-HCl pH 7.2): 12 ± 1%

CC/C=C\C/C=C\C/C=C\CCCCCCCC(=O)O [LeA, α-linolenic acid]
Maximum activity in pH profile ([1]; LeA 9.8 µM, optimal pH 7.2): 62.3 ± 0.4 nmol·s^−1·mg^−1 | Km [1, 11]: 5.8 µM | Vmax app ([1]; substrate LeA, Michaelis Menten fit, apparent): 128 ± 18 nmol/s/mg and 128 nmol/s/mg | Relative Activity (%) LOX4 ([1]; 50 mM Tris-HCl pH 7.2): 100% | Maximum activity in pH profile ([3]; LeA 9.8 µM, optimal pH 6.6): 3.9 ± 0.4 nmol·s^−1·mg^−1 | Km ([3]; read-out: Km app, substrate LeA, Michaelis Menten fit, apparent (purity and iron load not considered)): 26.3 ± 2 µM | Relative Activity (%) LOX2 ([3]; 50 mM Tris-HCl pH 7.2): 100% | Maximum activity in pH profile ([4]; LeA 9.8 µM, optimal pH): 1.6±0.1 nmol·s^−1·mg^−1 | Km [4, 11]: 1.2 ± 0.4 µM | Relative Activity (%) LOX6 ([4]; 50 mM Tris-HCl pH 7.2): 100% | Maximum activity in pH profile ([5]; LeA 9.8 µM, optimal pH): 50.5±2.8 nmol·s^−1·mg^−1 | Relative Activity (%) LOX3 ([5]; 50 mM Tris-HCl pH 7.2): 100%

CCN1C(=O)C=CC1=O [NEM, N-ethylmaleimide]
Photometry Relative activity (%) LOX4 [1, 12]: 3 ± 2% | Photometry Relative activity (%) LOX2 [3, 12]: 35 ± 10% | Photometry Relative activity (%) LOX6 [4, 12]: 13 ± 2% | Photometry Relative activity (%) LOX3 [5, 12]: 29 ± 10%
